Measured values: patent US8501995B2, “β-phenylethylidenehydrazine derivatives” (The Governors of the University of Alberta, priority 2009, dated 2013)
Like-named read-outs stand apart in the source and are kept apart here.

Key:
MAO-B [1] = biological target: T1, MAO-B (Rattus norvegicus, UniProt P19643); experiment: MAO-B inhibition in vitro in control rat brain homogenate (14C-β-phenylethylamine substrate); type: biochemical
T1 construct: the drugs were pre-incubated with control rat brain homogenate prior to conducting the assay; from tissue; host or cells: rat (male Sprague-Dawley) whole brain homogenate
T1 sequence (P19643 1-520): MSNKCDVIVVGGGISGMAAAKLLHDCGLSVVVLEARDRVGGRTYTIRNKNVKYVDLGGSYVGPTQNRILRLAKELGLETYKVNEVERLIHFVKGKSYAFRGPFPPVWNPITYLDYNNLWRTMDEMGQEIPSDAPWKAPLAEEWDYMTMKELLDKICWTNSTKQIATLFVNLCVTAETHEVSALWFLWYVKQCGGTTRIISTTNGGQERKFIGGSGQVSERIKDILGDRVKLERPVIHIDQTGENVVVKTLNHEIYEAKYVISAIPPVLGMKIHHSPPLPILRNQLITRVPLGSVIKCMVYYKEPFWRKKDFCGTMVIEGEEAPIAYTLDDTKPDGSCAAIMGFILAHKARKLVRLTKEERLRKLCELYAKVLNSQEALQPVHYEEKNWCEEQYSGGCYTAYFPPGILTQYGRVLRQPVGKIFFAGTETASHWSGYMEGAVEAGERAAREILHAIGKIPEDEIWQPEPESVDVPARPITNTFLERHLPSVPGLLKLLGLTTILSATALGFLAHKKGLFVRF
Protocol: (§1) Monoamine oxidase activity was determined using a modified protocol described by Lyles and Callingham.^51 In the in vitro studies, the drugs were pre-incubated with control rat brain homogenate prior to conducting the assay. Briefly, tissue homogenate was diluted in KH2PO4 (0.2M), and an aliquot (50 μl) was incubated with the appropriate radiolabelled substrates (^14C-labelled 5-hydroxytryptamine and β-phenylethylamine were used as substrates for MAO-A and -B respectively). The reaction products were extracted by a mixture of ethyl acetate and toluene (1:1 v/v), and a portion of the top layer was added to a vial containing scintillation fluid for radioactivity measurement. Radioactivity (dpm) was counted using a Beckman LS 7500 liquid scintillation spectrometer.

MAO-A [2] = biological target: T2, MAO-A (Rattus norvegicus, UniProt P21396); experiment: MAO-A inhibition in vitro in control rat brain homogenate (14C-5-hydroxytryptamine substrate); type: biochemical
T2 construct: from tissue; host or cells: rat (male Sprague-Dawley) whole brain homogenate
T2 sequence (P21396 1-526): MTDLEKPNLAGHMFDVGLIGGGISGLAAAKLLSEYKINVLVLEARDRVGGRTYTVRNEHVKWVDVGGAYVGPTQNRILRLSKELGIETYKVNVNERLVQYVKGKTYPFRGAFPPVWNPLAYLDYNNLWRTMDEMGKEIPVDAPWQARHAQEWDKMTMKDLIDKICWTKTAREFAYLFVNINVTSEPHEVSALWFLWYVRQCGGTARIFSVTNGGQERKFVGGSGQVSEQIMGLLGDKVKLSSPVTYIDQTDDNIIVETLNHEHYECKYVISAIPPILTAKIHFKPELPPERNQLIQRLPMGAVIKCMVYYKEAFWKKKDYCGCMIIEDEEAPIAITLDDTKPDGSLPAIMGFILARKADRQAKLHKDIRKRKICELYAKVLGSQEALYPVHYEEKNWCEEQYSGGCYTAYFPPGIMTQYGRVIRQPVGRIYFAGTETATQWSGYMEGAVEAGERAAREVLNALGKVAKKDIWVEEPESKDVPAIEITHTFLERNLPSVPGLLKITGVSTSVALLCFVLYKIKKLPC
Protocol: as §1

GABA-T [3] = biological target: T3, GABA-T (Rattus norvegicus, UniProt P50554); experiment: GABA-T activity ex vivo in brain homogenates of drug-treated rats (radiochemical); details: i.p., equimolar doses (PEH 30 mg/kg, 7p 47 mg/kg, 8p 38.5 mg/kg)
T3 construct: Brain homogenate from control rats was pre-incubated with the drug of interest; from tissue; host or cells: rat (male Sprague-Dawley) whole brain homogenate
T3 sequence (P50554 28-500): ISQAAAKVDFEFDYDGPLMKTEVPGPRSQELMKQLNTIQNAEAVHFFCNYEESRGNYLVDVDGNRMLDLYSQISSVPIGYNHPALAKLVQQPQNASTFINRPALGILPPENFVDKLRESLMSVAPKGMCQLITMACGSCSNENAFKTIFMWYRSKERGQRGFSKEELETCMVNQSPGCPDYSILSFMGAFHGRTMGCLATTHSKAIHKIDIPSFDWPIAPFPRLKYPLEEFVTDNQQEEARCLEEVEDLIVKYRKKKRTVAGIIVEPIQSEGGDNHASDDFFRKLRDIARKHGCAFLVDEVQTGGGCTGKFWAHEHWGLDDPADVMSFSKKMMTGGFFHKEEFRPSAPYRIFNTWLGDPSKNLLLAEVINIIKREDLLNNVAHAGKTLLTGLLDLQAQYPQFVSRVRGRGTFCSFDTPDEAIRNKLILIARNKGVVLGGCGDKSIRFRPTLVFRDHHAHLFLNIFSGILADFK
Protocol: (§2) Male Sprague-Dawley rats (approximately 300 g) were pair-housed in polycarbonate cages with free access to food (Purina Rat Chow) and water, and were maintained on a 12-hour light-dark cycle (lights on at 0800). All animal procedures were approved by the University of Alberta Biosciences Animal Policy and Welfare Committee, and were carried out in accordance with the guidelines of the Canadian Council on Animal Care.
(§3) In the ex vivo studies, animals were injected intraperitoneally with equimolar amounts of PEH (30 mg/kg), 7p (47 mg/kg) or 8p (38.5 mg/kg) or vehicle (corn oil) and were killed by decapitation 3, 6 or 12 hours following drug administration. Brains were rapidly removed and flash-frozen in 2-methylbutane on solid carbon dioxide, and were stored at −80° C. Subsequently, partially-thawed brains were homogenized in 5 volumes of ice-cold distilled water, and stored in aliquots at -80° C. for use in subsequent analyses (GABA-T, MAO-A, MAO-B, and brain levels of amino acids) after addition to the appropriate buffer medium.
(§4) A modification of the colorimetric method of Sethi^49 was used in the initial in vitro screen. Brain homogenate from control rats was pre-incubated with the drug of interest and an incubation buffer before conducting the assay. In the ex vivo study of homogenates from brains of rats treated with the analogs, GABA-T activity was measured using the radiochemical procedure of Sterri and Fonnum.^20 Briefly, homogenates were incubated with radiolabelled GABA in a buffer containing pyridoxal phosphate and the resultant products were isolated using a liquid anion exchanger (tri-n-octylamine). Radioactivity (dpm) was counted using a Beckman LS 7500 liquid scintillation spectrometer.

MAO-B [4] = biological target: T1, MAO-B; experiment: MAO-B activity ex vivo in brain tissue of drug-treated rats; details: i.p.; for MAO-B activity ex vivo: 7p 47 mg/kg, 8p 38.5 mg/kg; for effect on MAO-B activity ex vivo: time points tested 3, 6, 12 hours, equimolar doses (PEH 30 mg/kg, 7p 47 mg/kg, 8p 38.5 mg/kg)
Protocol: as §2, §3, §1

MAO-A [5] = biological target: T2, MAO-A; experiment: MAO-A activity ex vivo in brain tissue of drug-treated rats; details: for effect on MAO-A activity ex vivo: time points tested 3, 6, 12 hours, i.p., equimolar doses (PEH 30 mg/kg, 7p 47 mg/kg, 8p 38.5 mg/kg); for MAO-A activity ex vivo / MAO-A inhibition ex vivo: 8p 38.5 mg/kg i.p.
Protocol: as §2, §3, §1

[6] = test system: brain levels of amino acids (GABA, glutamate, alanine and glycine); type: in vivo; details: rat whole brain; for effect on brain GABA levels / effect on brain alanine levels / effect on brain glutamate levels / effect on brain glycine levels: 3, 6, 12 hours, i.p., equimolar doses (PEH 30 mg/kg, 7p 47 mg/kg, 8p 38.5 mg/kg)
Protocol: as §2, §3
Amino acid levels (GABA, glutamate, alanine and glycine) were determined using a modified procedure previously described by Grant and colleagues^52 for the quantification of amino acids using HPLC combined with fluorescence detection, following derivatization with fluoraldehyde reagent [o-phthaldialdehyde (OPA)] and isobutyryl-L-cysteine (IBLC). Briefly, a portion of the homogenate (100 μl) was added to ice-cold methanol (400 μl), re-homogenized and centrifuged (13,000 g, 4° C.). The supernatants were further diluted by a factor of 2 in ice-cold water, and transferred to HPLC vials. A portion of the supernatant (5 μl) was reacted with OPA/IBLC (5 μl) in the injection loop of a Waters Alliance 2690XE system for 1.5 minutes before injection onto the analytical column (Symmetry C18 5 μm (4.6×150 mm)), connected to a Symmetry C18 guard column, held at 30° C. A Waters 474 fluorescence detector was set to an excitation wavelength of 344 nm and an emission wavelength of 443 nm. Data were collected and analyzed using the Empower Pro software package (Waters).

GABA-T [7] = biological target: T3, GABA-T; experiment: GABA-T inhibition in vitro, colorimetric screen in control rat brain homogenate; type: biochemical
Protocol: as §4

[8] = rat brain homogenate, mean±SEM, n=4
[9] = 6 hours following drug injection
[10] = 12 hours following drug injection
[11] = 3 hours following drug administration
[12] = 6 hours following drug administration
[13] = 3 hours following injection, PEH 30 mg/kg i.p.

Row | SMILES | inhibition of MAO-B in vitro (MAO-B [1]; [8]) | inhibition of MAO-A in vitro (MAO-A [2]; [8]) | GABA-T activity ex vivo (GABA-T [3]; 3 hours post-injection) | GABA-T activity ex vivo (GABA-T [3]; 6 hours post-injection) | GABA-T activity ex vivo (GABA-T [3]; 12 hours post-injection) | MAO-B activity ex vivo (MAO-B [4]; [9]) | MAO-B activity ex vivo (MAO-B [4]; [10]) | effect on MAO-B activity ex vivo (MAO-B [4]) | effect on MAO-A activity ex vivo (MAO-A [5]) | effect on brain GABA levels [6] | effect on brain alanine levels [6] | effect on brain glutamate levels [6] | effect on brain glycine levels [6] | inhibition of MAO-B in vitro (MAO-B [1]; concentration of 10 μM) | inhibition of MAO-A in vitro (MAO-A [2]; concentration of 10 μM) | other results
1 | NNCCc1ccccc1 [PLZ, phenelzine, reference compound] | greater than 95% | greater than 95% | – | – | – | – | – | – | – | – | – | – | – | – | – | –
2 | C#CCN(CC#C)/N=C/Cc1ccccc1 [7p] | – | – | 86 % of control | 86 % of control | not significantly different from control values | 58 % of control | 25 % of control | significantly reducing MAO-B activity at all time points tested | did not significantly alter MAO-A activity at any time point tested | did not significantly alter the levels of GABA, alanine or glutamate at any time point tested | did not significantly alter the levels of GABA, alanine or glutamate at any time point tested | did not significantly alter the levels of GABA, alanine or glutamate at any time point tested | increased glycine at 3, 6 and 12 hours post-injection | neither 7p nor 8p caused any inhibition of MAO-A or -B | neither 7p nor 8p caused any inhibition of MAO-A or -B | brain glycine level ([6]; 12 hours post-injection, 7p 47 mg/kg i.p.): 248 % of control
3 | C#CCNN=CCc1ccccc1 [8p, (E)- and (Z)-N-(2-Propynyl)-2-(phenyl)ethylidene]hydrazines] | – | – | 76 % of control | 77 % of control | not significantly different from control values | 24 % of control | 29 % of control | significantly reducing MAO-B activity at all time points tested | weak, transient effect on MAO-A | did not significantly alter the levels of GABA, alanine or glutamate at any time point tested | did not significantly alter the levels of GABA, alanine or glutamate at any time point tested | did not significantly alter the levels of GABA, alanine or glutamate at any time point tested | significantly increased glycine at 3 and 6 hours post-injection | neither 7p nor 8p caused any inhibition of MAO-A or -B | neither 7p nor 8p caused any inhibition of MAO-A or -B | MAO-A activity ex vivo (MAO-A [5]; [11]): 78 % of control; MAO-A inhibition ex vivo (MAO-A [5]; [11]): 22%; MAO-A activity ex vivo (MAO-A [5]; [12]): 70 % of control; MAO-A inhibition ex vivo (MAO-A [5]; [12]): 30%; brain glycine level ([6]; 6 hours post-injection, 8p 38.5 mg/kg i.p.): 216 % of control
4 | NN=CCc1ccccc1 [PEH, β-Phenylethylidenehydrazine] | 14.9±6.6% | 26.7±3.1% | 66 % of control | 66 % of control | 70 % of control | – | – | did not alter the activity of either MAO-A or -B | did not alter the activity of either MAO-A or -B | increased brain GABA and alanine levels | increased brain GABA and alanine levels | did not significantly alter brain glutamate or glycine levels | did not significantly alter brain glutamate or glycine levels | – | – | inhibition at 10 µM (GABA-T [7]): ~50%; brain GABA level [6, 13]: 418 % of control; brain alanine level [6, 13]: 489 % of control
